Key:
Y314D-Ppara = target: T1, Y314D-Ppara (Mus musculus, UniProt P23204, Y314D); assay: GC-MS of GFP-affinity purified extract of transduced Ppara-null hippocampal neurons; format: binding; conditions: lenti-GFP-Y314D-Ppara transduced Ppara-null neurons
T1 construct: the entire mouse GFP-Ppara gene (GFP-FLPpara) and three different mutated genes were cloned; expressed in transfected cells; host or cells: Ppara-null mouse hippocampal neurons, lentiviral transduction
T1 sequence (P23204 1-468 Y314D): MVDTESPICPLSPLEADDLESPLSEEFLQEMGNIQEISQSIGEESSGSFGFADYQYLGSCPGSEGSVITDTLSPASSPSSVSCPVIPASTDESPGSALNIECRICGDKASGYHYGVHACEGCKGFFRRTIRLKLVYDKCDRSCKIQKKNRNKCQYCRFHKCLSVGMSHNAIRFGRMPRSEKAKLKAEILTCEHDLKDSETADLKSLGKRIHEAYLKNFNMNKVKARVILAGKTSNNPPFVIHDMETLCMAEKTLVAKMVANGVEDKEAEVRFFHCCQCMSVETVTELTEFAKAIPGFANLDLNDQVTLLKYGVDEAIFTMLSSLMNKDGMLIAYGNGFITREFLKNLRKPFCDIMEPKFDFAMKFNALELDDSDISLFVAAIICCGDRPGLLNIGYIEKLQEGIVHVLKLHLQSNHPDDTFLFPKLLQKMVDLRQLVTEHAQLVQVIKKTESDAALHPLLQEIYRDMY
Protocol: Lentivirus-mediated de novo expression studies were performed, where wild type full-length (GFP-FLPpara) was overexpressed and three different LBD-mutated PPARα (GFP-Y314D, GFP-Y464D and GFP-Y314D/Y464D Ppara) recombinant proteins (FIG. 9D) were expressed in neurons followed by binding analyses with three endogenous ligands. Briefly, site directed mutagenesis was performed in the mouse PPARα with Y314 and Y464 residues replaced separately or together with aspartate (D). […] We normalized peak area of different ligands with that of internal standard and then quantified the binding affinity of these ligands with different construct of PPARα by peak integration statistics (Table 1).
Either E18 cultured mouse hippocampal neurons or hippocampal tissue of 6-8 week old male C57/BL6 mice were homogenized in ice-cold nondetergent hypotonic buffer [10 mM HEPES (pH 7.9), 1.5 mM MgCl2, 10 mM KCl, […], protease and phosphatase inhibitor cocktail]. […] The organic phase was collected, evaporated in the SpeedVac, reconstituted with 30 μL chloroform or acetonitrile, and then analyzed by GC-MS. […] After that, the eluate was collected from the column with 5M NaCl solution, concentrated with PD-10 desalting column and analyzed for GC-MS. […]

[1] = as above; format: binding, mouse; conditions: Vector Only; for Rel. Abundance (RA): normalized with internal standard
Protocol: Lentivirus-mediated de novo expression studies were performed, where wild type full-length (GFP-FLPpara) was overexpressed and three different LBD-mutated PPARα (GFP-Y314D, GFP-Y464D and GFP-Y314D/Y464D Ppara) recombinant proteins (FIG. 9D) were expressed in neurons followed by binding analyses with three endogenous ligands. Briefly, site directed mutagenesis was performed in the mouse PPARα with Y314 and Y464 residues replaced separately or together with aspartate (D). After that, the entire mouse GFP-Ppara gene (GFP-FLPpara) and three different mutated genes were cloned in the pLenti6/V5-TOPO lentiviral expression vector (FIG. 3D), packaged in lentivirus particle with HEK293FT cells, purified full length and mutated PPARα proteins in a GFP-affinity column, and finally thermal shift assays were performed in order to analyze their conformational stability. […] After 48 h of transduction, the cells were homogenized, passed through GFP-affinity column, eluted, fractionated with chloroform-methanol, and finally analyzed by GC-MS for the detection of ligands. […] On the other hand, mutation of the Y464 completely knocked down the ligand binding affinity as we observed profound loss of ligand binding in both lenti-GFP-Y464D-Ppara (FIG. 3K, FIG. 9K) and lenti-GFP-Y314D/Y464D-Ppara (FIG. 3L, FIG. 9L)-transduced Ppara-null neurons. Throughout these analyses, we used 2,4-bis (α, α-dimethyl benzyl) phenol as an internal standard (Supplementary FIG. 5A-F). We normalized peak area of different ligands with that of internal standard and then quantified the binding affinity of these ligands with different construct of PPARα by peak integration statistics (Table 1).
Either E18 cultured mouse hippocampal neurons or hippocampal tissue of 6-8 week old male C57/BL6 mice were homogenized in ice-cold nondetergent hypotonic buffer [10 mM HEPES (pH 7.9), 1.5 mM MgCl2, 10 mM KCl, […], protease and phosphatase inhibitor cocktail]. After 10 min of additional incubation in the hypotonic buffer, the homogenate was centrifuged at 8,000 g at 4° C. for 10 min. Next, the pellet was homogenized in ice-cold extraction buffer [10 mM HEPES (pH 7.9), 1.5 mM MgCl2, 0.21 M NaCl, 0.2 mM EDTA, 25% (v/v) glycerol, […], protease and phosphatase inhibitor cocktail], placed on a rotating shaker at 4° C. for 1 h, and then centrifuged at 18,000 g for 10 min. The supernatant (nuclear fraction) was incubated with 1.5 μg of GST PPARα LBD (Protein One) at 4° C. for 6 h in a rotating shaker. The reaction mixture was passed through glutathione column (Pierce® GST Spin Purification Kit), washed four times [50 mM Tris HCl (pH 7.4), 100 mM NaCl, protease and phosphatase inhibitor cocktail] and then eluted with free glutathione. The eluate was transferred to methanol:chloroform:water (4:3:1) mixture and then centrifuged at 14,000 rpm for 90 sec. The organic phase was collected, evaporated in the SpeedVac, reconstituted with 30 μL chloroform or acetonitrile, and then analyzed by GC-MS. In another case, E18 cultured hippocampal neurons were transduced with lentiviral particles conjugated with PPARα-LBD or different GFP-tagged mutated constructs followed by pulling down with anti-PPARα antibody or passing the extract through GFP-column of Vector Fusion-Aid GFP Kit (Cat # MB-0732). After that, the eluate was collected from the column with 5M NaCl solution, concentrated with PD-10 desalting column and analyzed for GC-MS.
A JEOL GCMate II (JEOL USA, Peabody Mass.) mass spectrometer was used in these experiments. The gas chromatograph was an Agilent 6890Plus (Wilmington Del.) equipped with a G1513A auto-injector with 100 vial sample tray connected to a G1512A controller. The gas chromatography column was a fused silica capillary column with a nonpolar 5% phenyl 95% dimethylpolysiloxane phase (Agilent HP-5 ms), 30 meters long, 0.25 mm internal diameter, 0.25 μm film thickness. […]

amount detected in nuclear extract by GC-MS (Y314D-Ppara) | SMILES | % RA [1] [%] | Adjusted peak area [1] | Rel. Abundance (RA) [1]
low amount | CCCCCCCCCCCCCCCC(N)=O [HEX, hexadecanamide] | 1.92 | 17632 | 0.01924
low amount | CCCCCCCCC=CCCCCCCCC(N)=O [OCT, 9-octadecenamide] | 8.69 | 79623 | 0.08689
